Source: US8470970B2, “Mammalian sweet and amino acid heterodimeric taste receptors comprising T1R3 and T1R1” (The Regents of the University of California, priority 2001, dated 2013)
One block for each molecule: values may come before it.

Assays:
mouse T1R1+3 = target: T1, mouse T1R1+3 (Mus musculus, UniProt Q925D8+Q99PG6); assay: Calcium imaging of HEK-293 cells co-expressing promiscuous G proteins and mouse T1R1+3; type: cell-based; conditions: for activation of T1R1+3: amino acids 50 mM; for shift of T1R1+3 dose response in the presence of IMP: 2.5 mM IMP
T1 construct: expressed in transfected cells; host or cells: HEK-293 (PEAKrapid) cells co-expressing promiscuous G proteins
T1 sequence (Q99PG6 20-842 L120P/N244D/D281A/N309Y/P311T/S314P/H418Y): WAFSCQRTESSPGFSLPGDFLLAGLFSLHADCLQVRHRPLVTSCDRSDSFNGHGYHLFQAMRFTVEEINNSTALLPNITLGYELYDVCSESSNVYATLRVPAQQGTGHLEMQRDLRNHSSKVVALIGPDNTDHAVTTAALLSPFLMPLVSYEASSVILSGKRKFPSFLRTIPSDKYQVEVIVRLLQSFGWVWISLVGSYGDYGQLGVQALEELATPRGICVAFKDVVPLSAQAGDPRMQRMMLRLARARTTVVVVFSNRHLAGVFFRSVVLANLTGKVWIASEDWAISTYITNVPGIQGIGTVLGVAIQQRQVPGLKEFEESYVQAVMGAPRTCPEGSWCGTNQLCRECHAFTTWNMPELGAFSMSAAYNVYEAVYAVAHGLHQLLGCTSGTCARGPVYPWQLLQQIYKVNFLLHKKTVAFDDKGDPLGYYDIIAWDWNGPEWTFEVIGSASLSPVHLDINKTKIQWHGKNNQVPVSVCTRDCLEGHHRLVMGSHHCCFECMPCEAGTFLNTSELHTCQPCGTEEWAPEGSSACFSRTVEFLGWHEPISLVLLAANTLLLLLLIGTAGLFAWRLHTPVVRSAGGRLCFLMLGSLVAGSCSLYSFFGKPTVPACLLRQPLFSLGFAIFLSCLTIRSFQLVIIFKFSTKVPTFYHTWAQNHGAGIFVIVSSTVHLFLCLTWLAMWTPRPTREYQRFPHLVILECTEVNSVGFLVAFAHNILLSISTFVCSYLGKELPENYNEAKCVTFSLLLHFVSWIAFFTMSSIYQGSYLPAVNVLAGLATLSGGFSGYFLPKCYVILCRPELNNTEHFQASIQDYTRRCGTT
T1 sequence (Q925D8 21-858): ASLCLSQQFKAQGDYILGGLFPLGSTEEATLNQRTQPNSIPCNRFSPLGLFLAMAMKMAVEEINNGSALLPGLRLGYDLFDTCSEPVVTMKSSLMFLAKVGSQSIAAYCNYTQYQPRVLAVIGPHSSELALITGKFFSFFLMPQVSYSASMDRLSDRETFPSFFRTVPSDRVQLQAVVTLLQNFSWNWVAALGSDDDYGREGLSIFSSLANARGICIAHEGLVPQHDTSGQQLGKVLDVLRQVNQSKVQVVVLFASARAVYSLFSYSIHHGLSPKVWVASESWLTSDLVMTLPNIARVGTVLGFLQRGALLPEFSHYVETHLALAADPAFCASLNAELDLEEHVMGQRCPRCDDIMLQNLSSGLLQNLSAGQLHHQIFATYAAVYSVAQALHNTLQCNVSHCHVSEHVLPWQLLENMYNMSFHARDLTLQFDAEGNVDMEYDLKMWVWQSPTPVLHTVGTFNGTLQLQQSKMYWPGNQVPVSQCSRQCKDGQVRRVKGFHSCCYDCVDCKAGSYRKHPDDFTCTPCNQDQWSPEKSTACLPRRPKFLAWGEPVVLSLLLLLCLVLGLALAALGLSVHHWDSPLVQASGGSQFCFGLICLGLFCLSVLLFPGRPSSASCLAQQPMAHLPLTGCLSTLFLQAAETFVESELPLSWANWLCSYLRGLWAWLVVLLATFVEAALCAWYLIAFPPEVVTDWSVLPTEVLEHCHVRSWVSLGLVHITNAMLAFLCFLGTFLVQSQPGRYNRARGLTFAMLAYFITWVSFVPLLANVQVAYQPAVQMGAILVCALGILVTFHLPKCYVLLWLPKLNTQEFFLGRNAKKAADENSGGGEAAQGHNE
Protocol: (a): HEK-293 cells co-expressing promiscuous G proteins and heteromeric mouse T1R2+3 or T1R1+3 receptors were stimulated with L- and D-amino acids. […] (b)(c): Quantification of amino-acid responses for T1R2+3(b) and T1R1+3(c). […] Each column represents the mean±s.e.m. of at least ten independent determinations. […] All calcium measurements and quantifications were performed as described in the Methods and Nelson et al., Cell 106:381-390 (2001).
Mouse T1R1 and T1R3 were transfected alone or in combination and tested for stimulation by L-amino acids.
(§1) Cells were grown, maintained and transfected exactly as described earlier (Nelson et al., Cell, 106:381-390 (2001)). […] FURA-2 acetomethyl ester was used to measure intracellular calcium concentration ([Ca^2+]i), and assay conditions were identical to those previously described (Nelson et al., Cell, 106:381-390 (2001)). Responses were measured for 60 s and the fluorescence ratio at wavelengths of 340 and 380 nm (F340/F380) was used to measure [Ca^2+]i. For data analysis, response refers to the number of cells responding in a field of about 300 transfected cells. Cells were counted as responders if F340/F380 increased above 0.27 after addition of tastant. […] Dose-response functions were fitted using the logistical equation. Studies involving taster and non-taster alleles of T1R3 used constructs of complementary DNA coding for T1R3 from C57BL/6 and 129/Sv mice, respectively (Nelson et al., Cell, 106:381-390 (2001); Kitagawa et al., Biochem. Biophys. Res. Cummun., 283:236-242 (2001); Montmayeur et al., Nature Neurosci., 4:492-498 (2001); Max et al., Nature Genet., 28:58-63 (2001); Sainz et al., J. Neurochem., 77:896-903 (2001); Bachmanov et al., Chem. Senses, 26:925-933 (2001)).

[1] = target: T2, receptors containing human T1R1 (UniProt Q7RTX1+Q925D8)
T2 sequence (Q7RTX1 21-841): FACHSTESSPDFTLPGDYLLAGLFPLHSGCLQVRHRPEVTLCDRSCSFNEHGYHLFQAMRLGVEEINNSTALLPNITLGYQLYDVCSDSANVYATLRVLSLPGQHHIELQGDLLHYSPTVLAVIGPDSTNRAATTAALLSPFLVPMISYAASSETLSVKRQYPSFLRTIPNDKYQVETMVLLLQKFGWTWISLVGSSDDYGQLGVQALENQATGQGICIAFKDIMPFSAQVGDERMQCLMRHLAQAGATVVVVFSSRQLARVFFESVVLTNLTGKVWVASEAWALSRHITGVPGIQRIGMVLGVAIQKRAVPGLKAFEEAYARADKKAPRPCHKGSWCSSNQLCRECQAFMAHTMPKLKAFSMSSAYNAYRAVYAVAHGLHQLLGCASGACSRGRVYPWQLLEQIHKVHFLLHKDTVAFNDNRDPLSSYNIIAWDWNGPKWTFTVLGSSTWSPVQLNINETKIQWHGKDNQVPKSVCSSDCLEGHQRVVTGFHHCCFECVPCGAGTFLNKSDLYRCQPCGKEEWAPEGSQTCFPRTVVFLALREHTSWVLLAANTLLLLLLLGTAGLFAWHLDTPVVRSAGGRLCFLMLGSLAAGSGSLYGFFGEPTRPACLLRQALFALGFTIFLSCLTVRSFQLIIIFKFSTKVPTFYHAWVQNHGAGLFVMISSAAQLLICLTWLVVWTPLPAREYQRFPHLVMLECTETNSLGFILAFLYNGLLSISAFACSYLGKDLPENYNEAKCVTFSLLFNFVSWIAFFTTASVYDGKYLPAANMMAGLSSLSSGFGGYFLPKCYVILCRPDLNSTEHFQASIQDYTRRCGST
T2 sequence (Q925D8 21-858): T1 sequence (Q925D8 21-858)
Protocol: as §1

[2] = Behavioral thresholds for detection of sweet tastants in vivo

activation of T1R1+3 (mouse T1R1+3): activating
Compound: NC(=O)CC[C@H](N)C(=O)O [glutamine]

activation of T1R1+3 (mouse T1R1+3): activating
Compound: N[C@@H](CO)C(=O)O [Ser, serine]
shift of T1R1+3 dose response in the presence of IMP (mouse T1R1+3): at least one order of magnitude to the left

Compound: NC(CCP(=O)(O)O)C(=O)O [L-AP4]
potentiation of T1R1+3 response to the tastant by purine nucleotides (mouse T1R1+3): greatly potentiated

activation of T1R1+3 (mouse T1R1+3): activates | activation of T1R1+3 (mouse T1R1+3; listed as glycine): activating
Compound: NCC(=O)O [Gly, glycine]

activation of T1R1+3 (mouse T1R1+3): activating
Compound: C[C@H](N)C(=O)O [Ala, alanine]
shift of T1R1+3 dose response in the presence of IMP (mouse T1R1+3): at least one order of magnitude to the left

Compound: N[C@@H](CCC(=O)O)C(=O)O [Glu, glutamate]
sensitivity of cells expressing human T1R1 relative to other amino acids [1]: more than an order of magnitude more sensitive | shift of T1R1+3 dose response in the presence of IMP (mouse T1R1+3): at least one order of magnitude to the left

Compound: O=C1NS(=O)(=O)c2ccccc21 [saccharin]
in vivo threshold [2]: ~0.5 mM

activation of T1R1+3 (mouse T1R1+3): activating
Compound: C[C@@H](O)[C@H](N)C(=O)O [threonine]

Compound: C[C@@H](N)C(=O)O [D-Ala]
activation of T1R1+3 by D-amino acid in the presence of IMP (mouse T1R1+3; amino acid 50 mM, IMP 2.5 mM): exception

Compound: CC1=CC(=O)[N-]S(=O)(=O)O1.[K+] [acesulfame-K]
in vivo threshold [2]: ~0.5 mM

activation of T1R1+3 (mouse T1R1+3): no responses
Compound: N[C@@H](Cc1c[nH]c2ccccc12)C(=O)O [Trp]

Compound: N[C@@H](CCC(=O)O)C(=O)[O-].[Na+] [MSG, monosodium L-glutamate]
activation of receptors containing human T1R1 ([1]; low concentration, FIG. 11c): robustly activates | potentiation of T1R1+3 response to the tastant by purine nucleotides (mouse T1R1+3): greatly potentiated

Compound: OC[C@H]1O[C@@](CO)(O[C@H]2O[C@H](CO)[C@@H](O)[C@H](O)[C@H]2O)[C@@H](O)[C@@H]1O [sucrose]
in vivo threshold [2]: ~20 mM
